# Reference: the OPERA property sets (Mansouri et al. 2018)
row,SMILES,logP
1,CCOC1OC(CO)C(O)C(O)C1O (configuration not stated),-2.28
2,OCc1ccccc1C(c1ccc(O)cc1)c1ccc(O)cc1,3.27
3,Nc1ccn(C2OC(CCl)C(O)C2O)c(=O)n1 (configuration not stated),-1.05
4,CCC1(c2ccccc2)C(=O)NC(=O)N=C1OC(C)C (configuration not stated),2.22
5,CCOP(=O)(Cc1ccc(-c2nc3ccccc3s2)cc1)OCC,3.5
6,O=C1c2ccccc2C(=O)C1c1ccc(Br)cc1,3.76
7,CCN1CC(C(O)C(CC2CCCCC2)NC(=O)C(Cc2cnc[nH]2)NC(=O)C(CC(=O)N(C)CCOC)Cc2ccccc2)OC1=O (configuration not stated),2.45
8,C[C@@H]1Cc2c(Cl)cc(C(=O)N[C@@H](Cc3ccccc3)C(=O)O)c(O)c2C(=O)O1,4.74
9,OC1(c2ccccc2Cl)CCCCC1n1cncn1 (configuration not stated),2.68
10,CCCCCCC(C)(C)c1ccc(C2CCCC(O)C2)c(O)c1 (configuration not stated),6.68
11,C=C1C(=O)OC2C1C(OC(=O)C(C)=CC)CC1(CO1)C1C(OC(C)=O)C=C(C)C21O (configuration not stated),0.76
12,CN(C)CCC(c1ccccc1)c1ccc(C(C)(C)C)cc1 (configuration not stated),5.1
13,Cc1cccc(C)c1OC(=O)c1ccc(N)cc1O,3.88
14,CON=C(C(=O)N[C@@H]1C(=O)N2C(C(=O)O)=C(COC(N)=O)CS[C@H]12)c1ccco1,-0.16
15,CCCCc1ccc(N2C(N)=NC(N)=NC2(C)C)cc1,2.66
16,O=c1[nH]c(-c2ccccc2)nc2nn[nH]c12,1.27
17,O=CC1=CC=C2C(C(=O)O)CCN2c2cc(Br)ccc21 (configuration not stated),3.6
18,O=C(CN1CCCCC1)NCc1ccccc1,2.27
19,N#Cc1ccc(C[Se]CCC(=O)O)cc1,1.37
20,CC1(C)CC(=O)CC(C)(C)N1O,0.12
21,CC(C)NCC(O)COc1cccc(CC(N)=O)c1 (configuration not stated),0.22
22,CCN1CC(C(O)C(CC2CCCCC2)NC(=O)C(Cc2cnc[nH]2)NC(=O)C(Cc2ccc(OC)cc2)NC(=O)N(C)CC(O)CO)OC1=O (configuration not stated),1.42
23,O=C(CN1CCCCC1)Nc1ccc(Cl)c(Cl)c1,3.65
24,CCCCCCc1ccc(CC(=O)O)cc1,4.25
25,CCNC(=O)NS(=O)(=O)c1ccc(Cl)cc1,1.79
26,O=c1ccn([C@H]2CC[C@@H](CO)O2)c(=O)[nH]1,-1

row,SMILES,logP
1,CC1(C)CC(N)CC(C)(C)N1O,0.56
2,O=C1CC(Oc2ccc(C(=O)CCc3ccccc3)cc2)N1 (configuration not stated),2.48
3,CCC(C(=O)OCc1ccc(C)cc1)C(COC(=O)C(C)(C)C)Cc1cncn1C (configuration not stated),4.55
4,O=C(c1ccc(F)cc1)c1ccc2n1CCC2C(=O)O (configuration not stated),2.82
5,CCCCCCCCCCCCCc1cccc(O)c1,8.84
6,CC(=Cc1ccccc1)C(=O)O,2.6
7,CCCCCCCCCCOc1ccc(C(=O)O)cc1,6.29
8,CCN1CC(C(O)C(CC2CCCCC2)NC(=O)C(Cc2cscn2)NC(=O)C(CC(=O)N2CCOCC2)c2ccccc2)OC1=O (configuration not stated),2.83
9,Cc1ccc2[nH]c(=O)nc(-c3ccccc3)c2c1,2.32
10,COc1ccccc1N1CCN(CCCNc2cc(=O)n(C)c(=O)n2C)CC1,1.6
11,O=c1c2ccccc2nc2n1CCC2,1.07
12,CNC(=C[N+](=O)[O-])NCCSCc1ccc(CN(C)C)o1,0.27
13,CCN1CC(C(O)C(CC2CCCCC2)NC(=O)C(Cc2cnc[nH]2)NC(=O)C(Cc2ccc(OC)cc2)NC(=O)N2CC(O)C(O)C2)OC1=O (configuration not stated),1.22
14,CCCCOCC(O)Cn1ccnc1[N+](=O)[O-] (configuration not stated),1.11
15,CNCCc1ccccc1,1.91
16,CCCCCCCc1ccncc1,5
17,CCN(CC)C(C)C(=O)Nc1c(C)cccc1C (configuration not stated),2.73
18,C1CC2OC2CC1C1CO1 (configuration not stated),0.44
19,CCC1OC(=O)C(C)C(OC2CC(C)(OC)C(O)C(C)O2)C(C)C(OC2OC(C)CC(N(C)C)C2O)C(C)(O)CC(C)C(=O)C(C)C(OC(C)=O)C1(C)O (configuration not stated),2.85
20,CC(=O)C(C(=O)ON=C(C)C12CC3CC(CC(C3)C1)C2)c1ccccc1 (configuration not stated),4.64
21,CC1OC(OC2CCC3(C)C(CCC4C3CC(O)C3(C)C(C5=CC(=O)OC5)CCC43O)C2)CC(O)C1O (configuration not stated),1.09
22,COc1cc(Cc2cnc(N)nc2N)ccc1C(C)C,3.14
23,Oc1ccc2c(c1)CCCC2,2.9
24,CCCCCCCCCCCCCc1ccc(O)cc1,8.2
25,O=C(CBr)c1ccccc1,2.19
26,CC1(C)CCC(c2ccccc2)(N2CCCCC2)CC1,6.39

row,SMILES,logP
1,COc1ccc(CCNCC(O)COc2ccc(-c3nc(C(C)=O)c(C)[nH]3)cc2)cc1OC (configuration not stated),2.14
2,CC1(C)NC(=Nc2ncc([N+](=O)[O-])s2)OC1(C)C,2.4
3,CC(=O)Nc1c(I)c(C(=O)N(C)CC(O)CO)c(I)c(C(=O)N(C)CC(O)CO)c1I (configuration not stated),-2.71
4,Cc1ccc(C(=O)c2ccc(CC(=O)O)n2C)cc1,2.79
5,Cc1cccc(C)c1NC(=O)CCCC(C)N (configuration not stated),1.41
6,CCOCCNCC(O)COc1ccc(-c2ncc(-c3cccs3)[nH]2)cc1 (configuration not stated),2.25
7,ClC(Cl)=C(c1ccc(Cl)cc1)c1ccc(Cl)cc1,6.51
8,CCN(CC)CCNC(=O)c1ccc(N)cc1OC,1.4
9,O=S(=O)(O)c1cccc2c(O)cccc12,-0.17
10,C=CCC(NC(=O)C(Cc1ccccc1)NS(=O)(=O)N1CCOCC1)C(=O)NC(COC(F)(F)C(=O)NCCN1CCOCC1)CC1CCCCC1 (configuration not stated),3.17
11,CC(=O)c1ccccc1Br,2.28
12,Clc1ccc(-c2ccccc2)c(Cl)c1,5.16
13,CCOC(=O)OCCC(SC(=O)OCC)=C(C)N(C=O)CC1=C(C(=O)OCOC(=O)C(C)(C)C)N2C(=O)C(NC(=O)C(=NOC)c3csc(N)n3)C2SC1 (configuration not stated),3.34
14,c1ccc2cc3cc4ccccc4cc3cc2c1,5.76
15,Cc1cc(Br)cc(C(=O)NC2CC2)c1O,3.8
16,C#CC1(O)C(F)CC2C3CCc4cc(O)ccc4C3C(OC)CC21C (configuration not stated),2.87
17,COC(=O)Nc1ccc(Cl)c(Cl)c1,3.32
18,c1ccc(CC2=NCCN2)cc1,2.65
19,CCOC(=O)C(CC(C)C)NC(=O)CNC(=O)CNC(=O)CCCCSc1ncnc2nc[nH]c12 (configuration not stated),1.07
20,CCC(C)CC,3.6
21,OC1c2ccccc2C2CCCCC2C1O (configuration not stated),2.47
22,Cc1ccccc1C(=O)c1ccc2n1CCC2C(=O)O (configuration not stated),2.9
23,O=[N+]([O-])c1ccc(O)cc1O,1.05
24,CCCCCCCC(C)(C)c1ccc(C2CCCC(O)C2)c(O)c1 (configuration not stated),7.18
25,C#C[C@]1(O)CC[C@H]2[C@@H]3CCc4cc(O)ccc4[C@H]3[C@@H](OC)C[C@@]21C,3.01
26,CC(=O)OCC1=C(C(=O)OCOC(=O)C(C)(C)C)N2C(=O)C(NC(=O)Cc3cccs3)C2SC1 (configuration not stated),1.57

row,SMILES,logP
1,CCCCCCCCCCCCCC(=O)O,6.11
2,CC(=O)OC(C(=O)ON=C(C)C12CC3CC(CC(C3)C1)C2)c1ccccc1 (configuration not stated),5.89
3,C=C(C)OCc1ccccc1,2.41
4,CCN1CC(C(O)C(CC2CCCCC2)NC(=O)C(Cc2cnc[nH]2)NC(=O)C(Cc2ccc(OC)cc2)NC(=O)N2CC(OCOC)C(OCOC)C2)OC1=O (configuration not stated),2.06
5,CCCCCc1ccc(CC(=O)O)cc1,3.75
6,O=C(COc1ccc(OCCNCC(O)COc2ccccc2)cc1)N1CCc2ccccc2C1 (configuration not stated),3.6
7,ClC1=C(Cl)C2(Cl)C3C4OC4C(Cl)C3C1(Cl)C2(Cl)Cl (configuration not stated),4.98
8,OCc1cc(Cl)cc(Cl)c1O,2.3
9,NS(=O)(=O)c1nc2c(Cl)cc(Cl)cc2s1,2.6
10,CC(C(=O)NCCO)n1ccnc1[N+](=O)[O-] (configuration not stated),-1.16
11,Cc1c2ccccc2c(C)c2ccccc12,5.69
12,COC(=O)c1nc(NCC(O)CO)cnc1[N+](=O)[O-] (configuration not stated),-0.1
13,CCC(=O)OCOC(=O)c1cc(S(N)(=O)=O)c(Cl)cc1NCc1ccco1,2.9
14,Clc1ccc(-c2ccccc2Cl)cc1,5.09
15,COc1cccc2c1C(=O)c1c(O)c3c(c(O)c1C2=O)CC(O)(C(C)=O)CC3OC1CC(N2CCOCC2)C(O)C(C)O1 (configuration not stated),2.31
16,CCCCCCCCCCC(C)(C)c1ccc(C2CCCC(O)C2)c(O)c1 (configuration not stated),8.42
17,CC(=O)OCCCN1C(=O)C(OC(C)=O)N=C(c2ccccc2)c2cc(Cl)ccc21 (configuration not stated),3.08
18,CC(=O)Oc1cc(OC(C)CCCc2ccccc2)cc2c1C1CC(O)CCC1C(C)N2C (configuration not stated),5.72
19,CCCCn1c(=O)[nH]c(=O)c2[nH]cnc21,0.84
20,CSc1cnc2ccccc2n1,2.79
21,CCOC(=O)C1=C(C)OC(=Cc2ccc(OC)cc2)C1=O,2.96
22,Nc1ncc(Cc2cccc(Cl)c2)c(N)n1,2.29
23,CC(C)NCC1CCc2cc(CO)c([N+](=O)[O-])cc2N1 (configuration not stated),2.24
24,CCCCCCCCCC[N+](C)(C)C.[I-],-0.16
25,CC1=CC(=O)C(C(C)C)=CC1=O,2.2
26,CC(=O)O[C@]1(C(=O)CO)CC[C@H]2[C@@H]3CCC4=CC(=O)CC[C@]4(C)[C@H]3[C@@H](O)C[C@@]21C,2.3

row,SMILES,logP
1,CCN(CCO)Cc1cccc(COc2ccccc2)c1,3.04
2,C=C1C(=O)OC2CC3(C)CCCC(C)C3=CC12 (configuration not stated),3.38
3,CC(=O)c1cccc(Nc2ccccc2C(=O)O)c1,4.07
4,Cc1cccc(C)c1N(CCCN1CCCCC1)C(=O)Cc1ccccc1,5.28
5,CC(C)(C)c1ccc(C2C(=O)c3ccccc3C2=O)cc1,4.88
6,COc1ncnc(NS(=O)(=O)c2ccc(N)cc2)c1OC(C)C,1.03
7,CCN(CC)CC(=O)NCc1ccccc1,2.14
8,Nc1cccc(I)c1,2.86
9,COC(=O)C1C(C=C2CCSC2=O)C1(C)C (configuration not stated),2.33
10,CCCCNC(=O)NCCNCC(O)COc1ccc(-c2ncc(C)[nH]2)cc1 (configuration not stated),1.24
11,CC(O)c1ccc2ccccc2c1 (configuration not stated),2.68
12,CCn1c(=O)n(C)c(=O)c2[nH]cnc21,0.52
13,O=C(Cn1ccnc1[N+](=O)[O-])NC(CO)(CO)CO,-1.77
14,CCc1ccc2cc3ccccc3cc2c1,5.85
15,OC(CN1CCCC1)(c1ccc(F)cc1)c1ccc(-c2ccncc2)cc1 (configuration not stated),3.84
16,C=CCC(NC(=O)C(Cc1ccccc1)NS(=O)(=O)N1CCOCC1)C(=O)NC(CC1CCCCC1)C(=O)C(F)(F)C(=O)NCCN1CCOCC1 (configuration not stated),3.39
17,Fc1ccc(Cl)c(N=C2NCCN2)c1,1.52
18,CN(C)N=Nc1ccc(C(=O)O)cc1,2.33
19,Nc1ccc(S(=O)(=O)Nc2ccccc2[N+](=O)[O-])cc1,2.11
20,CCC(C(=O)NC(N)=O)(C(=O)OC)c1ccccc1 (configuration not stated),1.58
21,Cc1cc2occc2c2oc(=O)ccc12,2.41
22,OC(CN1CCOCC1)(c1ccc(F)cc1)c1ccc(-c2ccncc2)cc1 (configuration not stated),2.82
23,CCCCC/C=C\C/C=C\C/C=C\C/C=C\CCCC(=O)O,6.98
